pIC50: −log10 of the molar value.
Tests used:
[1] = test system: phospho-PLCγ1 in Jurkat cells; assay: ITK target modulation PLC-γ assay (phospho-PLCγ1, αCD3-stimulated Jurkat cells); assay type: cell-based, human; settings: Homo sapiens, 1 hour compound incubation, αCD3 Dynabeads stimulation 8 minutes, MSD phospho-PLCγ1, read-out: PLC-γ Inhibition IC50
Method: Jurkat cells, an immortalized human T-lymphocyte cell line, were maintained in RPMI media, 10% FBS, 1% pen/strep/glutamine (growth media). Cells were plated in growth media plus 50 μM β-mercaptoethanol at 400,000 cells per well of a 96 well plate.
Compounds were serially diluted into DMSO, and then into media to concentrations 10× that of the final assay concentration. Compounds were then added to the cells with the final assay DMSO concentration being 0.1%. Cells were incubated for 1 hour at 37° C.
Following compound incubation, αCD3 Dynabeads were added at 1 bead/cell to each assay well and incubated at 37° C. for 7 minutes. Unstimulated control wells received media only. The plate was then placed on a 96-well magnetic plate for an additional 60 seconds (total assay stimulation time equals 8 minutes). The plate was then dumped and gently patted dry on a paper towel. 50 μl of complete Meso Scale Discovery (MSD) Lysis buffer was then added to each well. Samples were assayed for phospho-PLCγ1 using Meso Scale Discovery technology.
The assay stimulation time has been optimized for detection of Itk kinase-mediated phosphorylation of PLCγ1. The timing and detection reagents for this assay could be adjusted to capture phosphorylation events upstream (e.g., phospho-ZAP70) or downstream of the Itk/PLCγ1 node, provided the appropriate phospho-specific antibodies are available for building of an MSD assay.

ITK = ITK (Homo sapiens (Human), UniProt Q08881); assay: ITK inhibitor binding potency (LanthaScreen competitive binding assay); settings: TR-FRET tracer-236 displacement, 10 nM ITK; pre-incubation condition not given; read-out: ITK Inhibition IC50
Source text: The ability of candidate compounds to interact with ITK is quantitated by a competitive binding assay using the LanthaScreen technology developed by Life Technologies. This assay is based on the binding of a proprietary, Alexa Fluor® 647-labeled, ATP-competitive kinase inhibitor (kinase tracer-236) to the ITK expression construct in the presence of a Europium-conjugated antibody, resulting in a FRET (fluorescence resonance energy transfer) signal. Displacement of the kinase tracer by compound results in a lower emission ratio upon excitation of the Europium chelate. Candidate compounds are designed as potential irreversible inhibitors of ITK, capable of ligating to an active site cysteine residue resulting in time dependent covalent binding. The time dependent nature of irreversible inhibition is investigated by performing the binding assay with and without a pre-incubation of compound and ITK. […] The inhibitory potency of candidate compounds is measured in 20 mM HEPES pH 7.5, 10 mM MgCl2, 0.01% BSA, 0.0005% Tween-20, and 2% DMSO in the presence of 10 nM ITK, 2 nM Eu-anti-GST antibody, and 50 nM kinase tracer-236 using a 384-well plate format. Background signal is defined in the absence of ITK and uninhibited signal is defined in the presence of vehicle (2% DMSO) alone. Compounds were evaluated in an 11 point dose-response ranging from 20 uM to 0.34 nM. The binding assays are performed under two preincubation conditions to evaluate time dependence of inhibition. For the pre-incubation assay, ITK and Eu-anti-GST antibody are pre-incubated with compound or vehicle for two hours prior to the addition of kinase tracer. The non-preincubated assay is run under conditions where ITK and Eu-anti-GST antibody are added to a mixture of compound and kinase tracer. IC50 values of compounds are determined using a 4 parameter logistical fit of emission ratio as a function of the concentration of compound.

ITK, sequence (Q08881 whole entry): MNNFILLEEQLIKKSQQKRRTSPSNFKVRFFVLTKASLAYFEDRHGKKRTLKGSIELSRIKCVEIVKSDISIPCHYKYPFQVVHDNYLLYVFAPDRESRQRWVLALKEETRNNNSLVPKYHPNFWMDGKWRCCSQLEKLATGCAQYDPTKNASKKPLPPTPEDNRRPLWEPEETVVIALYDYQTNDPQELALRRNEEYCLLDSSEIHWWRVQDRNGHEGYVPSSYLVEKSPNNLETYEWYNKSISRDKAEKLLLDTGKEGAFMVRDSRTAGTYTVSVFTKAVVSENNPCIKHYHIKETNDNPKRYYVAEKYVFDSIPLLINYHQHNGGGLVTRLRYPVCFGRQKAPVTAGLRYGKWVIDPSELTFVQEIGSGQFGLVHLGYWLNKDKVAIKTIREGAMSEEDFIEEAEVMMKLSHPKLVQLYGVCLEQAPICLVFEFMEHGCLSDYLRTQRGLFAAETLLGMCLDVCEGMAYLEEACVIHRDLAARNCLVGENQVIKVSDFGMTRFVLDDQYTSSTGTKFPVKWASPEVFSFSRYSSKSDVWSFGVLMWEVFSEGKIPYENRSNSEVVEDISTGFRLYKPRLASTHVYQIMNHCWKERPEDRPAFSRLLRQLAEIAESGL

| Structure (SMILES) | pIC50 [1] | pIC50 (ITK) |
| --- | --- | --- |
| COc1cc(-c2c[nH]c3ncc(-c4cccc(/C=C(\C#N)C(N)=O)c4)cc23)ccn1 [Example 9, (E)-2-Cyano-3-(3-(3-(2-methoxypyridin-4-yl)-1H-pyrrolo[2,3-b]pyridin-5-yl)phenyl)acrylamide] | < 5.30 | ≥ 6.00 |
| C=CC(=O)NC1CN(c2cnc3[nH]cc(-c4ccncc4)c3c2)C1 [Example 10, N-(1-(3-(Pyridin-4-yl)-1H-pyrrolo[2,3-b]pyridin-5-yl)azetidin-3-yl)acrylamide] | < 5.30 | ≥ 6.00 |
| C=CC(=O)Nc1cc(-c2cnc3[nH]cc(-c4ccnc(OC)c4)c3c2)cc(C(F)(F)F)c1 [Example 11, N-(3-(3-(2-Methoxypyridin-4-yl)-1H-pyrrolo[2,3-b]pyridin-5-yl)-5-(trifluoromethyl)phenyl)acrylamide] | > 6.00 | ≥ 6.00 |
| C=CC(=O)N[C@H]1CCN(c2cnc3[nH]cc(-c4ccncc4)c3c2)C1 [Example 14, (S)-N-(1-(3-(pyridin-4-yl)-1H-pyrrolo[2,3-b]pyridin-5-yl)pyrrolidin-3-yl)acrylamide] | < 5.30 | ≥ 6.00 |
| C=CC(=O)N[C@H]1CCCN(c2cnc3[nH]cc(-c4ccncc4)c3c2)C1 [Example 15, (S)-N-(1-(3-(pyridin-4-yl)-1H-pyrrolo[2,3-b]pyridin-5-yl)piperidin-3-yl)acrylamide] | < 5.30 | ≥ 6.00 |
| C=CC(=O)Nc1cncc(-c2cnc3[nH]cc(-c4ccc(=O)n(C)c4)c3c2)c1 [Example 17, N-(5-(3-(1-methyl-6-oxo-1,6-dihydropyridin-3-yl)-1H-pyrrolo[2,3-b]pyridin-5-yl)pyridin-3-yl)acrylamide] | < 5.30 | ≥ 6.00 |
| C=CC(=O)N(C)c1cccc(-c2cnc3[nH]cc(-c4ccnc(OC)c4)c3c2)c1 [Example 21, N-(3-(3-(2-methoxypyridin-4-yl)-1H-pyrrolo[2,3-b]pyridin-5-yl)phenyl)-N-methylacrylamide] | 5.30 to 6.00 | ≥ 6.00 |
| O=C(/C=C/CN1CCOCC1)Nc1cccc(-c2cnc3[nH]cc(-c4ccncc4)c3c2)c1 [Example 23, (E)-4-morpholino-N-(3-(3-(pyridin-4-yl)-1H-pyrrolo[2,3-b]pyridin-5-yl)phenyl)but-2-enamide] | 5.30 to 6.00 | ≥ 6.00 |
| CN(C)C/C=C/C(=O)Nc1cccc(-c2cnc3[nH]cc(-c4ccncc4)c3c2)c1 [Example 24, (E)-4-(dimethylamino)-N-(3-(3-(pyridin-4-yl)-1H-pyrrolo[2,3-b]pyridin-5-yl)phenyl)but-2-enamide] | > 6.00 | ≥ 6.00 |
| C=CC(=O)Nc1cncc(-c2cnc3[nH]cc(-c4ccnc(C)c4)c3c2)c1 [Example 28, N-(5-(3-(2-methylpyridin-4-yl)-1H-pyrrolo[2,3-b]pyridin-5-yl)pyridin-3-yl)acrylamide] | > 6.00 | ≥ 6.00 |
| CN(C)C/C=C/C(=O)Nc1cccc(-c2cnc3[nH]cc(-c4ccc(=O)n(C)c4)c3c2)c1 [Example 34, (E)-4-(dimethylamino)-N-(3-(3-(1-methyl-6-oxo-1,6-dihydropyridin-3-yl)-1H-pyrrolo[2,3-b]pyridin-5-yl)phenyl)but-2-enamide] | < 5.30 | < 6.00 |
| C=CC(=O)NC1CN(c2cnc3[nH]cc(-c4ccnc(F)c4)c3c2)C1 [Example 35, N-(1-(3-(2-fluoropyridin-4-yl)-1H-pyrrolo[2,3-b]pyridin-5-yl)azetidin-3-yl)acrylamide] | < 5.30 | ≥ 6.00 |
| C=CC(=O)NC1CN(c2cnc3[nH]cc(-c4ccnc(NC)c4)c3c2)C1 [Example 36, N-(1-(3-(2-(methylamino)pyridin-4-yl)-1H-pyrrolo[2,3-b]pyridin-5-yl)azetidin-3-yl)acrylamide] | < 5.30 | ≥ 6.00 |
| COc1cc(-c2c[nH]c3ncc(-c4cccc(NC(=O)/C=C/CN(C)C)c4)cc23)ccn1 [Example 37, (E)-4-(dimethylamino)-N-(3-(3-(2-methoxypyridin-4-yl)-1H-pyrrolo[2,3-b]pyridin-5-yl)phenyl)but-2-enamide] | 5.30 to 6.00 | ≥ 6.00 |
| COc1cc(-c2c[nH]c3ncc(-c4cccc(NC(=O)/C=C/CN5CCOCC5)c4)cc23)ccn1 [Example 38, (E)-N-(3-(3-(2-methoxypyridin-4-yl)-1H-pyrrolo[2,3-b]pyridin-5-yl)phenyl)-4-morpholinobut-2-enamide] | < 5.30 | ≥ 6.00 |
| C=CC(=O)Nc1cccc(-c2cnc3[nH]cc(-c4cc(OC)ncn4)c3c2)c1 [Example 39, N-(3-(3-(6-methoxypyrimi-din-4-yl)-1H-pyrrolo[2,3-b]pyridin-5-yl)phenyl)acryl-amide] | 5.30 to 6.00 | ≥ 6.00 |
| C=CC(=O)Nc1cc(-c2cnc3[nH]cc(-c4ccnc(OC)c4)c3c2)cc(N2CCOCC2)n1 [Example 41, N-(4-(3-(2-methoxypyridin-4-yl)-1H-pyrrolo[2,3-b]pyridin-5-yl)-6-morpholinopyri-din-2-yl)acrylamide] | > 6.00 | ≥ 6.00 |
| C=CC(=O)Nc1cc(-c2cnc3[nH]cc(-c4ccnc(OC)c4)c3c2)cc(OC(C)C)n1 [Example 45, N-(6-isopropoxy-4-(3-(2-methoxypyridin-4-yl)-1H-pyrrolo[2,3-b]pyridin-5-yl)pyridin-2-yl)acrylamide] | 5.30 to 6.00 | ≥ 6.00 |
| C=CC(=O)Nc1cccc(-c2cnc3[nH]cc(-c4ccc(C(=O)Nc5ccc(C)cc5C)cc4)c3c2)c1 [Example 67, 4-(5-(3-acrylamidophen-yl)-1H-pyrrolo[2,3-b]pyridin-3-yl)-N-(2,4-dimethylphenyl) benzamide] | > 6.00 | < 6.00 |
| C=CC(=O)Nc1cccc(-c2cnc3[nH]cc(-c4c[nH]c(=O)c5ccccc45)c3c2)c1 [Example 69, N-(3-(3-(1-oxo-1,2-dihydroisoquino-lin-4-yl)-1H-pyrrolo[2,3-b]pyridin-5-yl)phenyl)acryl-amide] | < 5.30 | ≥ 6.00 |
| C=CC(=O)Nc1cccc(-c2cnc3[nH]cc(-c4cn(C)c(=O)c5ccccc45)c3c2)c1 [Example 72, N-(3-(3-(2-methyl-1-oxo-1,2-dihydroisoquino-lin-4-yl)-1H-pyrrolo[2,3-b]pyridin-5-yl)phenyl)acryl-amide] | > 6.00 | ≥ 6.00 |
| C=CC(=O)Nc1cccc(-c2cnc3[nH]cc(-c4ccc(C(=O)Nc5ccc(C(C)C)cc5)cc4)c3c2)c1 [Example 74, 4-(5-(3-acrylamidophen-yl)-1H-pyrrolo[2,3-b]pyridin-3-yl)-N-(4-isopropylphenyl) benzamide] | > 6.00 | ≥ 6.00 |
| COc1cc(NC(=O)/C=C/CN(C)C)cc(-c2cnc3[nH]cc(-c4ccnc(OC)c4)c3c2)c1 [Example 76, (E)-4-(dimethylamino)-N-(3-methoxy-5-(3-(2-methoxypyridin-4-yl)-1H-pyrrolo[2,3-b]pyridin-5-yl)phenyl)but-2-enamide] | > 6.00 | ≥ 6.00 |
| CN(C)C/C=C/C(=O)Nc1cccc(-c2cnc3[nH]cc(-c4cccc(C#N)c4)c3c2)c1 [Example 78, (E)-N-(3-(3-(3-cyanophenyl)-1H-pyrrolo[2,3-b]pyridin-5-yl)phenyl)-4-(dimethylamino) but-2-enamide] | < 5.30 | ≥ 6.00 |
